Earlier results in patent publication US20240315301A1, “Composition for Improving Vision” (ALGAE HEALTH SCIENCES CO., LTD., priority 2021, published 2024).

Details: fold more than vitamin E

CC1=C(/C=C/C(C)=C/C=C/C(C)=C/C=C/C=C(C)/C=C/C=C(C)/C=C/C2=C(C)C(=O)C(O)CC2(C)C)C(C)(C)CC(O)C1=O (stereo not drawn) [Astaxanthin, 3, 3′-dihydroxy-β, β-carotene-4, 4′-dione]
antioxidant activity relative to vitamin E (VE): 1000 times
